Assay in all cases: Cell proliferation WST-1 assay, single dose (Example 4)
Holding throughout (format): cell-based
Holding throughout (conditions): 100 μM, 48 hours
A general note: Formazan colour is commonly taken as a measure of viable cells.

The test system of one data set is HL-60 leukemic cells. On the procedure: (§1) In addition, compounds were tested in RPMI-7951 cells, which also contain mutated BRaf and are resistant to BRaf inhibitors due to the overexpression of MAP3K8 (the gene encoding COT/Tp12) that provides an alternative mechanism to indirectly or directly activate ERK proteins. […] For comparison, HeLa cervical carcinoma and Jurkat T-cell leukemia cells, which are p53 defective cancer cell lines but contain no known activating mutations in the ERK pathway, were studied. […] Cell proliferation was evaluated by water soluble tetrazolium-1 (WST-1) assay as previously described. Briefly, cells (˜5000/well) were seeded in 96 well plates, allowed to recover for 16-20 hours, and then treated with the indicated test compound for 48 hours. After incubation, WST-1 reagent was added and absorbance was read at 450 nm with background subtraction taken at 650 nm. Values were normalized to the control (DMSO only treated) cells.

Data set [1] has as its system Jurkat T-cell leukemia cells. How it is done:
as §1

The subject of another data set is SK-MEL-28 melanoma cells. How it is done:
as §1

A further data set has as its system RPMI-7951 melanoma cells. How it is done:
as §1

The next data set deals with A375 melanoma cells. How it is done:
as §1

The subject of data set [2] is HeLa cervical carcinoma cells. On the procedure: as §1

Experimental findings from US9115122B2, “Non-ATP dependent inhibitors of extracellular signal-regulated kinase (ERK)” (UNIVERSITY OF MARYLAND, BALTIMORE, priority 2012, dated 2015) are described below.

With `CCOc1ccc(/C=C2\SC(=O)NC2=O)cc1` [Compound 2, (Z)-5-(4-ethoxybenzylidene)thiazolidine-2,4-dione], in the data set with HL-60 leukemic cells, the “Cell Viability (% of Vehicle) HL-60” value was 103 ± 16 % of Vehicle. In addition, the “Cell Viability (% of Vehicle) Jurkat” value in data set [1] is on record as 104 ± 4 % of Vehicle. Further, the “Cell Viability (% of Vehicle) SK-MEL-28” value with SK-MEL-28 melanoma cells is 103 ± 1 % of Vehicle. In addition, the “Cell Viability (% of Vehicle) RPMI-7951” value in the data set on RPMI-7951 melanoma cells is on record as 144 ± 2 % of Vehicle. The “Cell Viability (% of Vehicle) A375” value in the data set on A375 melanoma cells is reported as 110 ± 10 % of Vehicle. Besides, the “Cell Viability (% of Vehicle) HeLa” value in data set [2] is listed as 98 ± 13 % of Vehicle.
In the case of `CCOc1ccc(CC2SC(=O)N(CCN)C2=O)cc1` (stereo not drawn) [Compound 6, 3-(2-aminoethyl)-5-(4-ethoxybenzyl)thiazolidine-2,4-dione], in the data set with HL-60 leukemic cells, the “Cell Viability (% of Vehicle) HL-60” value was 41 ± 17 % of Vehicle. Besides, the “Cell Viability (% of Vehicle) Jurkat” value in data set [1] is 108 ± 10 % of Vehicle. Also, the “Cell Viability (% of Vehicle) SK-MEL-28” value in the data set with SK-MEL-28 melanoma cells is 88 ± 3 % of Vehicle. For the same molecule, in the data set on RPMI-7951 melanoma cells, the “Cell Viability (% of Vehicle) RPMI-7951” value was 70 ± 5 % of Vehicle. Moreover, the “Cell Viability (% of Vehicle) A375” value in the data set on A375 melanoma cells is 92 ± 6 % of Vehicle. Also, the “Cell Viability (% of Vehicle) HeLa” value in data set [2] is reported as 90 ± 4 % of Vehicle.
Consider `CCOc1ccc(/C=C2\SC(=S)N(CCN)C2=O)cc1` [Compound 9, (Z)-3-(2-aminoethyl)-5-(4-ethoxybenzylidene)-2-thioxothiazolidin-4-one], for which the “Cell Viability (% of Vehicle) HL-60” value in the data set with HL-60 leukemic cells was 7.9 ± 3 % of Vehicle. Further, the “Cell Viability (% of Vehicle) Jurkat” value in data set [1] is 52 ± 4 % of Vehicle. The “Cell Viability (% of Vehicle) SK-MEL-28” value in the data set on SK-MEL-28 melanoma cells is 45 ± 7 % of Vehicle. In the data set on RPMI-7951 melanoma cells, the “Cell Viability (% of Vehicle) RPMI-7951” value is given as 3.3 ± 2 % of Vehicle. For the same molecule, in the data set with A375 melanoma cells, the “Cell Viability (% of Vehicle) A375” value was 21 ± 10 % of Vehicle. The “Cell Viability (% of Vehicle) HeLa” value in data set [2] is on record as 26 ± 6 % of Vehicle.
Take `CCOc1ccc(/C=C2\CC(=O)N(CCN)C2=O)cc1` [Compound 13, (E)-1-(2-aminoethyl)-3-(4-ethoxybenzylidene)pyrrolidine-2,5-dione]: the “Cell Viability (% of Vehicle) HL-60” value in the data set on HL-60 leukemic cells is reported as 58 ± 28 % of Vehicle. In addition, the “Cell Viability (% of Vehicle) Jurkat” value in data set [1] was 100 ± 10 % of Vehicle. The “Cell Viability (% of Vehicle) SK-MEL-28” value in the data set on SK-MEL-28 melanoma cells is listed as 65 ± 4 % of Vehicle. Further, in the data set on RPMI-7951 melanoma cells, the “Cell Viability (% of Vehicle) RPMI-7951” value is recorded as 19 ± 5 % of Vehicle. In the data set with A375 melanoma cells, the “Cell Viability (% of Vehicle) A375” value was 29 ± 3 % of Vehicle. For the same molecule, the “Cell Viability (% of Vehicle) HeLa” value in data set [2] was 75 ± 2 % of Vehicle.
Regarding `CCOc1ccc(/C=C2\CCN(CCN)C2=O)cc1` [Compound 17, (E)-1-(2-aminoethyl)-3-(4-ethoxybenzylidene)pyrrolidin-2-one], the “Cell Viability (% of Vehicle) HL-60” value in the data set with HL-60 leukemic cells is reported as 73 ± 9 % of Vehicle. The “Cell Viability (% of Vehicle) Jurkat” value in data set [1] is listed as 92 ± 2 % of Vehicle. Also, the “Cell Viability (% of Vehicle) SK-MEL-28” value with SK-MEL-28 melanoma cells is 79 ± 6 % of Vehicle. For the same molecule, in the data set on RPMI-7951 melanoma cells, the “Cell Viability (% of Vehicle) RPMI-7951” value is recorded as 96 ± 3 % of Vehicle. In the data set with A375 melanoma cells, the “Cell Viability (% of Vehicle) A375” value is 95 ± 2 % of Vehicle. Further, in data set [2], the “Cell Viability (% of Vehicle) HeLa” value is reported as 89 ± 4 % of Vehicle.
`CCOc1ccc(/C=C/C(=O)NCCN)cc1` [Compound 20, (E)-N-(2-aminoethyl)-3-(4-ethoxyphenyl)acrylamide]: the “Cell Viability (% of Vehicle) HL-60” value with HL-60 leukemic cells is reported as 59 ± 25 % of Vehicle. In data set [1], the “Cell Viability (% of Vehicle) Jurkat” value is 89 ± 7 % of Vehicle. Moreover, in the data set with SK-MEL-28 melanoma cells, the “Cell Viability (% of Vehicle) SK-MEL-28” value is 83 ± 4 % of Vehicle. In addition, in the data set with RPMI-7951 melanoma cells, the “Cell Viability (% of Vehicle) RPMI-7951” value is on record as 93 ± 9 % of Vehicle. For the same molecule, in the data set with A375 melanoma cells, the “Cell Viability (% of Vehicle) A375” value is 81 ± 5 % of Vehicle. The “Cell Viability (% of Vehicle) HeLa” value in data set [2] is given as 94 ± 5 % of Vehicle.
Take `CCOc1ccc(/C=C2\SC(=O)N(CC(C)N)C2=O)cc1` (stereo not drawn) [Compound 22b, (Z)-3-(2-aminopropyl)-5-(4-ethoxybenzylidene)thiazolidine-2,4-dione]: in the data set on HL-60 leukemic cells, the “Cell Viability (% of Vehicle) HL-60” value is 7.3 ± 3 % of Vehicle. In addition, the “Cell Viability (% of Vehicle) Jurkat” value in data set [1] is reported as 58 ± 10 % of Vehicle. For the same molecule, the “Cell Viability (% of Vehicle) SK-MEL-28” value in the data set with SK-MEL-28 melanoma cells is 32 ± 4 % of Vehicle. The “Cell Viability (% of Vehicle) RPMI-7951” value in the data set with RPMI-7951 melanoma cells is 16 ± 1 % of Vehicle. The “Cell Viability (% of Vehicle) A375” value with A375 melanoma cells is listed as 25 ± 4 % of Vehicle. Also, the “Cell Viability (% of Vehicle) HeLa” value in data set [2] is listed as 49 ± 7 % of Vehicle.
